Measurements taken from US20170290814A1, “METHODS OF TREATMENT OF CHOLESTASIS AND FIBROSIS” (GENFIT, priority 2016, published 2017).
“Also recorded” adds a separate entry of the source.

System: TGFβ1-induced expression of α-SMA protein in human HSC
Test: α-SMA ELISA in TGFβ1-activated human hepatic stellate cells
Type: cell-based
Conditions: TGFβ1 1 ng/ml, 48 h
Procedure: Serum-deprived HSC were preincubated for 1 hour with RM-5061 before the activation with the profibrogenic cytokine TGFβ1 (1 ng/ml). After 48 hours of incubation, the α-SMA content was measured by ELISA. The obtained values were transformed into percentage inhibition over TGFβ1 control. Data are presented as mean (quadruplicates)±standard error of the mean (SEM). Statistical analyses were performed by one-way ANOVA followed by Bonferroni post-hoc tests, using Sigma Plot 11.0 software. [*: p<0.05; **: p<0.01; ***: p<0.001 (comparison versus TGFβ1 1 ng/mL group)]. The curve fitting and the calculation of half maximal inhibitory concentration (IC50) were performed with XLFit software 5.3.1.3.
Serum-deprived HSC were preincubated for 1 hour with Cpd.5 before the activation with the profibrogenic cytokine TGFβ1 (1 ng/ml). After 48 hours of incubation, the expression of α-SMA was measured by ELISA. The obtained values were transformed into percentage inhibition over TGFβ1 control. Data are presented as mean (triplicates)±standard deviation (SD). Statistical analyses were performed by one-way ANOVA followed by Bonferroni post-hoc tests, using Sigma Plot 11.0 software. [*: p<0.05; **: p<0.01; ***: p<0.001 (comparison versus TGFμ1 1 ng/mL group)]. The curve fitting and the calculation of half maximal inhibitory concentration (IC50) were performed with XLFit software 5.3.1.3.
The human primary hepatic stellate cells (hHSC) (Innoprot) were cultured in STeCM medium (ScienCell cat #5301) that was supplemented with 2% fetal bovine serum (FBS, ScienCell cat #0010), 1% penicillin/streptomycin (ScienCell cat #0503) and stellate cell growth supplement (SteCGS; ScienCell cat #5352). Cell culture flasks were coated with Poly-L Lysine (Sigma cat #P4707) for a better adherence.
The human primary hepatic stellate cells (hHSC) (Innoprot) were cultured under standard conditions, as described above. The cells were subsequently plated at a density of 2×10^4cells/well or 6,5×10^3 cells/well into 96-well or 384-well plates respectively. The next day, cell-culture medium was removed, and cells were washed with PBS (Invitrogen cat #14190). Then, hHSC were deprived for 24 hours in serum-free and SteCGS-free medium. For the treatments with compounds of formula (I), the serum-deprived hHSC were preincubated for 1 hour with the compounds followed by addition of the profibrogenic stimuli TGFβ1 (PeproTech cat #100-21, 1 ng/mL) in serum-free and SteCGS-free medium for an additional 48 hour period. At the end of treatment, the cell culture supernatants of treated-HSC were transferred into a new plate before storage at −20° C.The cells were washed with PBS (Invitrogen, cat #14190) before the addition of lysis buffer (CelLytic™ MT reagent; Sigma #C3228). Plates were then incubated for 30 min on ice using a plate shaker, before storage at −20° C.
The level of α-SMA was measured using a Sandwich ELISA. Briefly, the wells of an ELISA plate were first coated with the capture antibody (mouse monoclonal anti-ACTA2, Abnova) at 4° C. overnight. After 3 washes in PBS +0.2% Tween 20, a blocking solution consisting of PBS +0.2% BSA was added for one hour followed by another washing cycle. The cell lysates were transferred into the wells for binding to the capture antibody for a period of 2 h at room temperature. After the washing procedure, the detection antibody (biotinylated mouse monoclonal anti-ACTA2, Abnova) was added for 2 hours at room temperature followed by 3 washes. For the detection, an HRP-conjugated Streptavidin (R&D Systems cat #DY998) was first applied for 30 min at room temperature. After washing, the HRP substrate TMB (;BD, #555214) was added and incubated for 7 min at room temperature in the dark. Upon oxidation, TMB forms a water-soluble blue reaction product that becomes yellow with addition of sulfuric acid (solution stop), enabling accurate measurement of the intensity at 450 nm using a spectrophotometer. […]

Structure (SMILES)	effect on TGFβ1-induced α-SMA level in human HSC	Max % I Over TGFβ, αSMA
[2H]C([2H])([2H])C(=O)Oc1ccccc1C(=O)Nc1ncc([N+](=O)[O-])s1 [Cpd.5, 2-[(5-nitro-1,3-thiazol-2-yl)carbamoyl]phenyl (d3)ethanoate]	inhibits	
CC(C)(C)[C@H](N)C(=O)Oc1ccccc1C(=O)Nc1ncc([N+](=O)[O-])s1 [RM-5061, (S)-2-(5-nitrothiazol-2-ylcarbamoyl)phenyl 2-amino-3,3-dimethylbutanoate]	dose-dependently reduced; also recorded: inhibits	40%
